As a reminder, the IC50 is the concentration that gives 50% inhibition.

For one assay, the target named is T1, human vanilloid receptor VR-1 (hVR1) (Homo sapiens, UniProt Q8NER1).
T1 construct: expressed in transfected cells; host or cells: HEK293 Tet-on cells (hVR1-HEK293), expression induced with doxycycline
T1 sequence (Q8NER1 whole entry): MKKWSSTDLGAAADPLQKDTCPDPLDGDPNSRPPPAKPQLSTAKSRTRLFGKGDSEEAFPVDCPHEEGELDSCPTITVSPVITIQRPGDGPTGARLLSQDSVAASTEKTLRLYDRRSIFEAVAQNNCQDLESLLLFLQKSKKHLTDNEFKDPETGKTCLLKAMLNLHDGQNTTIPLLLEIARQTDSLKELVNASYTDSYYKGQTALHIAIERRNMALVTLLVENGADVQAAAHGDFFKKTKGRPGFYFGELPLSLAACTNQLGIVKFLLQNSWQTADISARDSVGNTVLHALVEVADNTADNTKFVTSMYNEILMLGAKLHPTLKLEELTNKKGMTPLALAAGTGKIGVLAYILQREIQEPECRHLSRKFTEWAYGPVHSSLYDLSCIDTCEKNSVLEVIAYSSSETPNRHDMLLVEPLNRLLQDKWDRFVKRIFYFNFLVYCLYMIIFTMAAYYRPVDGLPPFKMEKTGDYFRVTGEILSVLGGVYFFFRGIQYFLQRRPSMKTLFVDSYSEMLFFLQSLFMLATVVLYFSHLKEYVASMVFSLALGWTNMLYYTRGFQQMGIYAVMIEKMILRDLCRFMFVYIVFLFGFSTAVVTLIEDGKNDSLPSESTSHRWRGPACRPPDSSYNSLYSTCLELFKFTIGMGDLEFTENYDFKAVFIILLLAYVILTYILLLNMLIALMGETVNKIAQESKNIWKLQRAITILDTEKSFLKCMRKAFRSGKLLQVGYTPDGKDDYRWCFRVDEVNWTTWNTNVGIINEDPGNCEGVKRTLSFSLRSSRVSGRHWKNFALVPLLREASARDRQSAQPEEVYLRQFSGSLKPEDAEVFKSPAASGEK
Put plainly: Calcium influx test of vanilloid receptor (capsaicin-induced, Fluo-3/AM, hVR1-HEK293 cells). In kind it is cell-based. As to conditions: calcium influx induced by 1 μM capsaicin, read-out: Inhibitory effect IC50 (nM) on calcium influx. As to the method: In order to measure an activity of the biaryl benzoimidazole derivative of the invention as an antagonist, a calcium influx test was performed.
An hVR1-HEK293 cell line is a cell line, in which a Human Embryonic Kidney (HEK) 293 Tet-on cell is transformed with a human vanilloid-1 gene (pTRE2hyg-hVR1, 7.8 kb). The cell line can regulate a VR-1 expression, depending on the administration of a tetracycline analogue, doxycycline. At two days before the calcium influx test, the cell line was cultured in media containing doxycycline to induce the VR-1 expression, and then used. First, the hVR1-HEK293 cells were cultured in T75 flasks to have a density of about 80%, and then detached from the bottom of the flasks by using trypsin. The detached cells were centrifuged and collected. Then, the cells were suspended in media containing 1 μg/mL doxycycline, and diluted to have a concentration of 2×10^5 to 4×10^5 cells/mL. 100 μL of the suspended cells were added to each well of 96-well black plate, cultured at 37° C. and 5% CO2 cell incubator for two days, and then used in the calcium influx test.
The compound was dissolved in dimethyl sulfoxide (DMSO), and then used for the calcium influx test.
In order to measure the calcium influx […], the cells were cultured in a solution containing Fluo-3/AM, which is a calcium indicator, at 37° C. for 90 minutes, so as to be permeated by a fluorescent dye. […] 193 μL D-PBS were added to each well, and then the compound was added thereto in various concentrations. To measure an activity as an antagonist, the cells were treated with 1 μM capsaicin to stimulate the calcium influx. The inhibitory effect of the compound when calcium influx was induced by 1 μM capsaicin was measured depending on its concentration using a fluorescence spectrometer, and the obtained data were substituted into a hill equation to analyze the values.
The inhibitory effect on calcium influx was measured with a single concentration of the compounds of the invention (200 nM), and the result thereof are shown in Table 2.
As for `CCNC(=O)c1cnc(-c2ccc(-c3nc4ccc(C(C)(C)C)cc4[nH]3)cc2)c(Cl)c1` [Compound 62, 6-[4-(6-tert-butyl-1H-benzoimidazol-2-yl)-phenyl]-5-chloro-N-ethyl-nicotinamide], the IC50 stood at 126 nM.
Same read-out and setting: then `CC(C)(C)c1ccc2nc(-c3ccc(-c4ncc(CO)cc4Cl)cn3)[nH]c2c1` [Compound 90, [6′-(6-tert-butyl-1H-benzoimidazol-2-yl)-3-chloro-[2,3′]bipyridinyl-5-yl]-methanol], with 158 nM; and `OCc1cnc(-c2ccc(-c3nc4ccc(C(F)(F)F)cc4[nH]3)nc2)c(Cl)c1` [Compound 89, [3-chloro-6′-(6-trifluoromethyl-1H-benzoimidazol-2-yl)-[2,3′]bipyridinyl-5-yl]-methanol], with 338 nM; and `OCc1cnc(-c2ccc(-c3nc4ccc(Br)cc4[nH]3)nc2)c(Cl)c1` [Compound 91, [6′-(6-bromo-1H-benzoimidazol-2-yl)-3-chloro-[2,3′]bipyridinyl-5-yl]-methanol], with 517 nM.
On the same count and under the same terms, the figure for `COC(=O)c1cnc(-c2ccc(-c3nc4ccc(C(C)(C)C)cc4[nH]3)nc2)c(Cl)c1` [Compound 74, 6′-(6-tert-butyl-1H-benzoimidazol-2-yl)-3-chloro-[2,3′]bipyridinyl-5-carboxylic acid methyl ester] is 26.2 nM.

Still in this assay, the particulars now being: single concentration of compound 200 nM, 1 μM capsaicin.
For the compound `CC(=O)OCc1cnc(-c2ccc(-c3nc4ccc(Br)cc4[nH]3)cc2)c(Cl)c1` [Compound 55, acetic acid 6-[4-(6-bromo-1H-benzoimidazol-2-yl)-phenyl]-5-chloro-pyridin-3-yl methyl ester], the “Inhibitory effect (%) on calcium influx” value is given as 0.9%.
On the same count and under the same terms, the figure for `CC(=O)OCc1cnc(-c2ccc(-c3nc4ncc(Br)cc4[nH]3)cc2)c(Cl)c1` [Compound 56, acetic acid 6-[4-(6-bromo-1H-imidazo[4,5-b]pyridin-2-yl)-phenyl]-5-chloro-pyridin-3-yl methyl ester] is 6.5%; for `CC(=O)OCc1cnc(-c2ccc(-c3nc4c(Br)cc(C(F)(F)F)cc4[nH]3)cc2)c(Cl)c1` [Compound 57, acetic acid 6-[4-(4-bromo-6-trifluoromethyl-1H-benzoimidazol-2-yl)-phenyl]-5-chloro-pyridin-3-yl methyl ester] it is 16.9%.

Still in this assay, the particulars now being: single concentration of compound 200 nM, 1 μM capsaicin, read-out: Inhibitory effect (%) on calcium influx.
For the compound `CCNC(=O)c1cnc(-c2ccc(-c3nc4ccc(C(C)(C)C)cc4[nH]3)cc2)c(Cl)c1` [Compound 62, 6-[4-(6-tert-butyl-1H-benzoimidazol-2-yl)-phenyl]-5-chloro-N-ethyl-nicotinamide], the inhibition at 0.2 µM worked out at 54.3%.
Still for that read-out and setting: the figure for `CC(C)(C)c1ccc2nc(-c3ccc(-c4ncc(CO)cc4Cl)cn3)[nH]c2c1` [Compound 90, [6′-(6-tert-butyl-1H-benzoimidazol-2-yl)-3-chloro-[2,3′]bipyridinyl-5-yl]-methanol] is 42.7%.
On the same count and under the same terms, then `OCc1cnc(-c2ccc(-c3nc4ccc(N5CCOCC5)cc4[nH]3)cc2)c(Cl)c1` [Compound 26, {5-chloro-6-[4-(6-morpholin-4-yl-1H-benzoimidazol-2-yl)-phenyl]-pyridin-3-yl}-methanol], with 5%; and `CC(C)(C)c1ccc2nc(-c3ccc(-c4ncc(C(=O)O)cc4Cl)cn3)[nH]c2c1` [Compound 82, 6′-(6-tert-butyl-1H-benzoimidazol-2-yl)-3-chloro-[2,3′]bipyridinyl-5-carboxylic acid], with 6.7%; and `CCNC(=O)c1cnc(-c2ccc(-c3nc4ccc(Br)cc4[nH]3)nc2)c(Cl)c1` [Compound 99, 6′-(6-bromo-1H-benzoimidazol-2-yl)-3-chloro-[2,3′]bipyridinyl-5-carboxylic acid ethyl amide], with 17.5%.
With `OCc1cnc(-c2ccc(-c3nc4ccc(C(F)(F)F)cc4[nH]3)nc2)c(Cl)c1` [Compound 89, [3-chloro-6′-(6-trifluoromethyl-1H-benzoimidazol-2-yl)-[2,3′]bipyridinyl-5-yl]-methanol], the inhibition at 0.2 µM came out at 30%.
As for `OCc1cnc(-c2ccc(-c3nc4ccc(Br)cc4[nH]3)nc2)c(Cl)c1` [Compound 91, [6′-(6-bromo-1H-benzoimidazol-2-yl)-3-chloro-[2,3′]bipyridinyl-5-yl]-methanol], the inhibition at 0.2 µM was 27.6%.
Same read-out and setting: the figure for `CC(C)(C)c1ccc2nc(-c3ccc(-c4ncc(C(=O)O)cc4Cl)cc3)[nH]c2c1` [Compound 44, 6-[4-(6-tert-butyl-1H-benzoimidazol-2-yl)-phenyl]-5-chloro-nicotinic acid] is -1%; for `O=C(O)c1cnc(-c2ccc(-c3nc4ccc(Br)cc4[nH]3)cc2)c(Cl)c1` [Compound 45, 6-[4-(6-bromo-1H-benzoimidazol-2-yl)-phenyl]-5-chloro-nicotinic acid] it is 3.3%.
Same read-out and setting: the figure for `Clc1cc(CBr)cnc1-c1ccc(-c2nc3ccc(Br)cc3[nH]2)cc1` [Compound 36, 6-bromo-2-[4-(5-bromomethyl-3-chloro-pyridin-2-yl)-phenyl]-1H-benzoimidazole] is 9.6%; for `COC(=O)c1cnc(-c2ccc(-c3nc4ccc(C(C)(C)C)cc4[nH]3)nc2)c(Cl)c1` [Compound 74, 6′-(6-tert-butyl-1H-benzoimidazol-2-yl)-3-chloro-[2,3′]bipyridinyl-5-carboxylic acid methyl ester] it is 81.3%.
`C=Cc1cnc(-c2ccc(-c3nc4ccc(Br)cc4[nH]3)cc2)c(Cl)c1` [Compound 39, 6-bromo-2-[4-(3-chloro-5-vinyl-pyridin-2-yl)-phenyl]-1H-benzoimidazole]: the inhibition at 0.2 µM turned out to be 3.1%.
On the same count and under the same terms, the figure for `O=C(O)c1cnc(-c2ccc(-c3nc4c(Br)cc(C(F)(F)F)cc4[nH]3)cc2)c(Cl)c1` [Compound 47, 6-[4-(4-bromo-6-trifluoromethyl-1H-benzoimidazol-2-yl)-phenyl]-5-chloro-nicotinic acid] is 5.7%.
For `OCc1cnc(-c2ccc(-c3nc4c(Br)cc(Br)cc4[nH]3)nc2)c(Cl)c1` [Compound 94, [3-chloro-6′-(4,6-dibromo-1H-benzoimidazol-2-yl)-[2,3′]bipyridinyl-5-yl]-methanol], the inhibition at 0.2 µM worked out at 9.8%.
Same read-out and setting: the figure for `CCNC(=O)c1cnc(-c2ccc(-c3nc4ncc(Br)cc4[nH]3)nc2)c(Cl)c1` [Compound 100, 6′-(6-bromo-1H-imidazo[4,5-b]pyridin-2-yl)-3-chloro-[2,3′]bipyridinyl-5-carboxylic acid ethyl amide] is 13%; for `CCNC(=O)c1cnc(-c2ccc(-c3nc4c(Br)cc(C(F)(F)F)cc4[nH]3)nc2)c(Cl)c1` [Compound 101, 6′-(4-bromo-6-trifluoromethyl-1H-benzoimidazol-2-yl)-3-chloro-[2,3′]bipyridinyl-5-carboxylic acid ethyl amide] it is 3.7%; for `COC(=O)c1cnc(-c2ccc(-c3nc4ccc(Br)cc4[nH]3)nc2)c(Cl)c1` [Compound 75, 6′-(6-bromo-1H-benzoimidazol-2-yl)-3-chloro-[2,3′]bipyridinyl-5-carboxylic acid methyl ester] it is 45.3%.
On the same count and under the same terms, the figure for `COC(=O)c1cnc(-c2ccc(-c3nc4ncc(Br)cc4[nH]3)cc2)c(Cl)c1` [Compound 51, 6-[4-(6-bromo-1H-imidazo[4,5-b]pyridin-2-yl)-phenyl]-5-chloro-nicotinic acid methyl ester] is 1.1%; for `COC(=O)c1cnc(-c2ccc(-c3nc4c(Br)cc(C(F)(F)F)cc4[nH]3)cc2)c(Cl)c1` [Compound 52, 6-[4-(4-bromo-6-trifluoromethyl-1H-benzoimidazol-2-yl)-phenyl]-5-chloro-nicotinic acid methyl ester] it is 20%.
On the same count and under the same terms, the figure for `CN1CCN(c2ccc3nc(-c4ccc(-c5ncc(CO)cc5Cl)cn4)[nH]c3c2)CC1` [Compound 88, {3-chloro-6′-[6-(4-methyl-piperazin-1-yl)-1H-benzoimidazol-2-yl]-[2,3′]bipyridinyl-5-yl}-methanol] is 15.3%; for `CCNC(=O)c1cnc(-c2ccc(-c3nc4ccc(C(C)(C)C)cc4[nH]3)nc2)c(Cl)c1` [Compound 98, 6′-(6-tert-butyl-1H-benzoimidazol-2-yl)-3-chloro-[2,3′]bipyridinyl-5-carboxylic acid ethyl amide] it is 13.2%; for `COC(=O)c1cnc(-c2ccc(-c3nc4c(Br)cc(Br)cc4[nH]3)nc2)c(Cl)c1` [Compound 78, 3-chloro-6′-(4,6-dibromo-1H-benzoimidazol-2-yl)-[2,3′]bipyridinyl-5-carboxylic acid methyl ester] it is 4.1%.
`O=C(O)c1cnc(-c2ccc(-c3nc4ccc(Br)cc4[nH]3)nc2)c(Cl)c1` [Compound 83, 6′-(6-bromo-1H-benzoimidazol-2-yl)-3-chloro-[2,3′]bipyridinyl-5-carboxylic acid]: the inhibition at 0.2 µM worked out at 22.8%.
The same measure, in the same setting: then `OCc1cnc(-c2ccc(-c3nc4ncc(Br)cc4[nH]3)nc2)c(Cl)c1` [Compound 92, [6′-(6-bromo-1H-imidazo[4,5-b]pyridin-2-yl)-3-chloro-[2,3′]bipyridinyl-5-yl]-methanol], with 7.3%.
Same read-out and setting: then `C=Cc1cnc(-c2ccc(-c3nc4c(Br)cc(C(F)(F)F)cc4[nH]3)cc2)c(Cl)c1` [Compound 41, 4-bromo-2-[4-(3-chloro-5-vinyl-pyridin-2-yl)-phenyl]-6-trifluoromethyl-1H-benzoimidazole], with -2.1%.
Turning to `COC(=O)c1cnc(-c2ccc(-c3nc4c(Br)cc(C(F)(F)F)cc4[nH]3)nc2)c(Cl)c1` [Compound 77, 6′-(4-bromo-6-trifluoromethyl-1H-benzoimidazol-2-yl)-3-chloro-[2,3′]bipyridinyl-5-carboxylic acid methyl ester], the inhibition at 0.2 µM is 48.9%.

The values above are taken from patent publication US8940769B2, “Biaryl benzoimidazole derivatives and pharmaceutical composition comprising the same” (Daewoong Pharmaceutical Co., Ltd., priority 2006, dated 2015).
